Measured values reported in US11578368B2, “Methods, tools and systems for the assessment, prevention, management and treatment selection for type 2 diabetes” (Patia Biopharma, S.A. De C.V., priority 2015, dated 2023).

Experiments:
[1] = test system: patients with and without the E508K variant of HNF1A; experiment: Study of acute glipizide response in humans with the HNF1A E508K variant; type: in vivo, human; conditions: carriers vs non-carriers of HNF1A E508K, preliminary results, statistical analysis ongoing
Experimental: Acute and medium-term response to glipizide in patients with and without the E508K variant of HNF1A will be measured. The study will consist of two phases. Patients will be invited to participate in both, but the research subject will have the freedom to choose only one of the stages of the study.
Open Study of a Single Dose of Glipizide (5 mg) in Patients With and Without the E508K Variant of HNF1A
Main Objective: To compare the change in glucose between carriers and noncarriers after a single oral administration of 5 mg of glipizide. […]
Eligible patients will discontinue antidiabetic therapy and initiate a washout period of 7 days, during which they will be monitored for hyperglycemia requiring re-initiation of antidiabetic therapy. […]
Patients will be admitted to the clinical research center after fasting for 8 hours. […] The concentrations of glucose, insulin and other hormones (GLP1) and metabolites will be measured at 15, 30, 60, 90, 120, 180, and 240 minutes after administration of 5 mg of glipizide. In the event of developing symptoms of hypoglycemia, blood glucose will be measured immediately. […]

[2] = cited from earlier work
[3] = cited from earlier work; remark: listed apart in the source

SMILES: Cc1cnc(C(=O)NCCc2ccc(S(=O)(=O)NC(=O)NC3CCCCC3)cc2)cn1 [Glipizide]
- hypoglycaemic response to glipizide in carriers of the E508K HNF1A variant [1]: greater response
- hypoglycaemic response to glipizide in carriers of the E508K HNF1A variant ([1]; listed as glipizide): great hypoglycaemic response
- risk of inducing severe hypoglycemia ([2]; described as low): 0.19-2.5 episodes per 1000 patient-years
- life ([3]; described as short): 2 to 8 h
- time until it starts acting ([3]; oral): ≤ 30 min

SMILES: CN(C)C(=N)N=C(N)N [Metformin]
- rate of gastrointestinal adverse events ([2]; at the proposed dose): low rate
